One data set deals with IMR90 cells. Put plainly: In vitro wound healing activity (scrape wound, cell migration). In kind it is cell-based. The conditions noted are these: 24 hours, Compound 1 0.1, 0.5, 1 mM, Compound 3 0.05, 0.5, 1 μM. On the procedure: The wound healing activities of Compounds 1 and 3 were in vitro assessed by the method provided in Valster et al., Methods, 2005, 37, 208-215 and Rodriguez et al., “Methods in Molecular Biology” in Cell Migration: Developmental Methods and Protocols, vol. 294, Ed by Guan et al. Humana. Press Inc.
IMR90 cells were seeded on a six-well culture dish and grown in MEM medium with 10% FBS to confluence in the presence of serum. The growth medium (MEM with 10% FBS) was then replaced with a serum-free medium (MEM without FBS). After starved for 24 hours, wounds were made by scraping using a P1000 pipette tip. […] The wounds were observed by a phase contrast microscopy using an inverted microscope. Images were taken at areas flanking the intersections of the wounds and the marker lines at regular intervals over a period of 24 hours. These images were analyzed through a digital imaging system using Image-Pro Plus® (Media Cybernetics, Silver Spring, Md.) to determine the position of the migrating cells at the wound edges. The cell migration distance was calculated by substracting the width of the wound at each interval from its initial width.

For another data set, the system named is 5-FU-induced mucositis. Put plainly: In vivo anti-mucositis activity (5-FU, buccal pouch wound). The conditions noted are these: hamster, subcutaneous once a day Day 0 to Day 5; Compound 1 36, 72, 144 mg/kg; Compound 3 0.5, 5.0, 50.0 mg/kg; dose-dependent. Set-up: species or system Syrian golden hamsters. Here is the method: Twenty young Syrian golden hamsters, 7 to 8 weeks old weighing 90 to 130 g, were numbered and randomly divided into five groups (4 hamsters each group).
Each hamster in the five groups was punched at the right buccal pouch mucosa with a skin puncher on Day 0 to give a 6 mm diameter wound. Four groups were intraperitoneally administered with 5-FU at 20 mg/kg twice at Day 0 and one group was used as a control without any treatment. […] Wounds were examined macroscopically and microscopically 0.5, 1, 2, 3, 4, 5, and 6 days after the punching. The hematological parameters, serum biochemistry, extents of inflammatory cell infiltration, sizes of hemorrhagic areas, and presence of ulcers and abscesses were recorded. After Day 6, all of the hamsters were anesthetized with isoflurane (2-chloro-2-difluoromethoxy-1,1,1-trifluoro-ethane) for macroscopic and histological analysis and Western blot analysis.

The target in data set [1] is histone deacetylase (HDAC). Kind of data set: HDAC inhibition assay (Fluor de Lys fluorescent assay, HeLa lysate). In kind it is biochemical. The settings on record: mantissa in r5, exponent and unit in r6. Here is the method:
The histone deacetylase (HDAC) activity was measured in HeLa lysate suspensions using a Fluor de Lys™ fluorescent assay system (Biomol, Enzo Life Sciences; PA, USA) with some modification as described previously (Pflum et al., 2007). In brief, HeLa lysate (1.5 μl) were preincubated in the presence of test compound or vehicle (DMSO, 0.2% v/v) at 30° C. for 10 minutes, therefore Fluor de Lys™ substrate (125 μM) was added and incubated at 37° C. under shaking for 45 minutes. Finally, the developer reagent (95 μl, 1×) was immediately added to the same aliquot of the reaction mixture for another 10 minutes. The extent of deacetylated substrate formation was monitored by a microplate fluorescence reader (Thermo Varioskan Flash, Thermofisher; MA, USA) to determine the fluorescence intensity (excitation at 360 nm, emission at 460 nm). The results were expressed as the percent inhibition of the rate of deacetylated substrate formation on the reacting interval. […] See Bieliauskas et al., Bioorg. Med. Chem. Lett., 2007, 17: 2216-2219.

A further data set deals with COX-2. Kind of data set: In vitro COX-2 protein expression (Western blot). In kind it is cell-based. The settings on record: IMR90 cells; 0.05-1.0 μM; dose-dependent. Here is the method:
To detect COX-2 protein expression, Western blot analysis was performed as follows. Briefly, Compound 3-treated IMR90 cells, stimulated by wounds (scraping using a P1000 pipette tip) and non-stimulated, were collected and lysed in 1× lysis buffer. Protein concentrations of these lysed cells were measured using Bio-Rad quantification assay (Bio-Rad Laboratory, CA). Protein extracts (20 μg) were subjected to electrophoresis on a 10% SDS-PAGE and transferred to PVDF membrane. The antibody recognizing COX-2 was obtained from Epitomics (Burlingame, Calif.). The antibody recognizing β-actin was from obtained Sigma (St. Louis, Mo.). All antibodies were rabbit polyclonal antibodies except for the β-actin antibody, which was a mouse monoclonal antibody. Secondary antibodies were anti-rabbit IgG and anti-mouse IgG (horseradish-peroxidase linked antibodies), respectively (Amersham Biosciences, Piscataway, N.J.). Primary antibodies were used at a 1:1,000 dilution and secondary antibodies were used at a 1:5,000 dilution in a solution containing 5% BSA in TBS-T. Immunoreactive proteins were detected using the enhanced chemiluminescence light (ECL) detecting kit (Millipore).
For orientation: A western blot detects proteins with antibodies after separation by electrophoresis.

In general, melting point refers to the temperature of the solid-liquid transition. For orientation: IC50 means the concentration that inhibits the measured activity by half. The low end stands for higher potency, the high end for lower potency.

Consider `NC(Cc1ccc(O)cn1)C(=O)Nc1ccc(CCCC(=O)NO)cc1` (stereo not shown) [Compound 6, 4-(4-(2-amino-3-(5-hydroxypyridin-2-yl)-propanamido)phenyl)-N-hydroxybutanamide], for which the melting point was 230 °C (dec.). Molecule `NC(Cc1ccc(OCc2ccccc2)cn1)C(=O)Nc1ccc(CCCC(=O)NO)cc1` (stereo not shown) [Compound 5, 4-(4-(2-amino-3-(5-(benzyloxy)pyridin-2-yl)propanamido)phenyl)-N-hydroxybutanamide] gave a melting point above 300 °C. On to `O=C(CCCc1ccccc1)NO` [Compound 1, N-hydroxy-4-phenylbutanamide], for which the wound healing result in the data set with IMR90 cells was “promoted wound healing”. In the data set on 5-FU-induced mucositis, the “5-FU-induced mucositis in wound areas” value is given as “reduced 5-FU-induced mucositis”.

`CC(C)(C(=O)NO)C(O)Cc1ccccc1` (stereo not shown) [Compound 2, N,3-dihydroxy-2,2-dimethyl-4-phenylbutanamide]: the melting point lay within 95 to 96 °C.

`CC(C)(C)OC(=O)NC(Cc1ccc(OCc2ccccc2)cn1)C(=O)NCc1ccc(C(=O)NO)cc1` (stereo not shown) [Compound 7, tert-butyl 3-(5-(benzyloxy)pyridin-2-yl)-1-(4-(hydroxycarbamoyl)benzylamino)-1-oxopropan-2-ylcarbamate] showed a melting point of 106 to 108 °C. Further, 1320 nM corresponded to half-maximal inhibition in data set [1] (IC50). Take `CC(C)(C)OC(=O)N[C@H](Cc1ccc(OCc2ccccc2)cn1)C(=O)Nc1ccc(CCCC(=O)NO)cc1` [Compound 3, (R)-tert-butyl 3-(5-(benzyloxy)pyridin-2-yl)-1-(4-(4-(hydroxylamino)-4-oxobutyl)phenylamino)-1-oxopropan-2-ylcarbamate]: the IC50 in data set [1] amounted to 398 nM. The wound healing entry with IMR90 cells was “promoted wound healing”. Besides, the COX-2 protein expression result in the data set with COX-2 is “inhibited COX-2 protein expression”. In addition, in the data set with 5-FU-induced mucositis, the “5-FU-induced mucositis in wound areas” value is on record as “reduced 5-FU-induced mucositis”. `CC(C)(C)OC(=O)NC(Cc1ccc(O)cn1)C(=O)Nc1ccc(CCCC(=O)NO)cc1` (stereo not shown) [Compound 4, tert-butyl-1-(4-(4-(hydroxyamino)-4-oxobutyl)phenylamino)-3-(5-hydroxypyridin-2-yl)-1-oxopropan-2-ylcarbamate] had a melting point of 166 to 167 °C. Further, in data set [1], the 50% inhibitory concentration (IC50) is 4130 nM.

These data come from patent US8242282B2, “Histone deacetylase inhibitors” (Taipei Medical University, priority 2010, dated 2012).
